According to US9796705B2, “Fused tricyclic compounds and methods of use thereof for the treatment of viral diseases” (Merck Sharp & Dohme Corp., priority 2009, dated 2017):

These molecules were tested on HCV replicon (assay: Cell-Based HCV Replicon Assay). Details: Hepatitis C virus, 72 h; replicon cells, replicon RNA level by real time PCR (Taqman) on day 3; EC90 = concentration to achieve ΔCT=3.2 over baseline; read-out: Biological activity (EC90, HCV replicon assay).
Experimental: To measure cell-based anti-HCV activity of selected compounds of the present invention, replicon cells were seeded at 5000 cells/well in 96-well collagen I-coated Nunc plates in the presence of the test compound. Various concentrations of test compound, typically in 10 serial 2-fold dilutions, were added to the assay mixture, with the starting concentration ranging from 250 µM to 1 μM. The final concentration of DMSO was 0.5%, fetal bovine serum was 5%, in the assay media. Cells were harvested on day 3 by the addition of 1× cell lysis buffer (Ambion cat #8721). The replicon RNA level was measured using real time PCR (Taqman assay). The amplicon was located in 5B. The PCR primers were: 5B.2F, ATGGACAGGCGCCCTGA (SEQ. ID NO. 1); 5B.2R, […] (SEQ. ID NO. 2); the probe sequence was FAM-labeled CACGCCATGCGCTGCGG (SEQ. ID NO. 3). GAPDH RNA was used as endogenous control and was amplified in the same reaction as NS5B (multiplex PCR) using primers and VIC-labeled probe recommended by the manufacturer (PE Applied Biosystem). The real-time RT-PCR reactions were run on ABI PRISM 7900HT Sequence Detection System using the following program: 48° C. for 30 min, 95° C. for 10 min, 40 cycles of 95° C. for 15 sec, 60° C. for 1 min. The ΔCT values (CT-CT5BCTGAPDH) were plotted against the concentration of test compound and fitted to the sigmoid dose-response model using XLfit4 (MDL). EC50 was defined as the concentration of inhibitor necessary to achieve ΔCT=1 over the projected baseline; EC90 the concentration necessary to achieve ΔCT=3.2 over the baseline. Alternatively, to quantitate the absolute amount of replicon RNA, a standard curve was established by including serially diluted T7 transcripts of replicon RNA in the Taqman assay. All Taqman reagents were from PE Applied Biosystems. Such an assay procedure was described in detail in e.g. Malcolm et at, Antimicrobial Agents and Chemotherapy 50: 1013-1020 (2006).
HCV replicon assay data was calculated for selected compounds of the present invention using this method and is provided in the table below.
`CC(C)(C)OC(=O)N1CCCC[C@H]1c1nc2ccc(-c3ccc4c(ccc5nc([C@@H]6CCCN6C(=O)OC(C)(C)C)[nH]c54)c3)cc2[nH]1` [Compound 8] was tested, and the EC90 was 1 to 999 nM.
`CC(C)[C@H](NC(=O)OC(C)(C)C)C(=O)N1CC(F)(F)C[C@H]1c1nc2ccc(-c3ccc4c(ccc5nc([C@@H]6CCCN6C(=O)[C@@H](NC(=O)OC(C)(C)C)C(C)C)[nH]c54)c3)cc2[nH]1` [Compound 13] was tested, and the EC90 was < 1 nM.
For `COC(=O)N[C@H](C(=O)N1CCC[C@H]1c1nc2ccc(-c3sc4ccc(-c5ccc6c(ccc7nc([C@@H]8CCCN8C(=O)[C@@H](NC(=O)OC)C(C)C)[nH]c76)c5)cc4c3C)cc2[nH]1)C(C)C` [Compound 16], the EC90 was < 1 nM.
`Cc1cc(-c2cnc([C@@H]3CCCN3C(=O)OC(C)(C)C)[nH]2)sc1-c1ccc2c(ccc3nc([C@@H]4CCCN4C(=O)OC(C)(C)C)[nH]c32)c1` [Compound 15] showed an EC90 of 1 to 999 nM.
In the case of `COC(=O)N[C@H](C(=O)N1CCC[C@H]1c1nc2ccc3cc(-c4ccc5nc([C@@H]6CCCN6C(C)=O)[nH]c5c4)ccc3c2[nH]1)C(C)C` [Compound 5], the EC90 is reported as < 1 nM.
`COC(=O)N[C@H](C(=O)N1CCC[C@H]1c1ncc(-c2ccc(-c3ccc4c(ccc5nc([C@@H]6CCCN6C(=O)[C@@H](NC(=O)OC)C(C)C)[nH]c54)c3)s2)[nH]1)C(C)C` [Compound 1] was tested, and the EC90 was < 1 nM.
For `COC(=O)N[C@H](C(=O)N1CCCC[C@H]1c1nc2ccc(-c3ccc4c(ccc5nc([C@@H]6CCCN6)[nH]c54)c3)cc2[nH]1)C(C)C` [Compound 10], the EC90 was 1 to 999 nM.
In the case of `COC(=O)N[C@H](C(=O)N1CCCC[C@H]1c1nc2ccc(-c3ccc4c(ccc5nc([C@@H]6CCCN6C(=O)[C@@H](NC(=O)OC)C(C)C)[nH]c54)c3)cc2[nH]1)C(C)C` [Compound 11], the EC90 is reported as < 1 nM.
`COC(=O)N[C@H](C(=O)N1CC(F)(F)C[C@H]1c1nc2ccc(-c3ccc4c(ccc5nc([C@@H]6CCCN6C(=O)[C@@H](NC(=O)OC)C(C)C)[nH]c54)c3)cc2[nH]1)C(C)C` [Compound 12] was tested, and the EC90 was < 1 nM.
With `COC(=O)N[C@H](C(=O)N1CCC[C@H]1c1ncc(-c2cc(C)c(-c3ccc4c(ccc5nc([C@@H]6CCCN6C(=O)[C@@H](NC(=O)OC)C(C)C)[nH]c54)c3)s2)[nH]1)C(C)C` [Compound 2] the EC90 was < 1 nM.
In the case of `CC(=O)N1CCC[C@H]1c1nc2ccc(-c3ccc4c(ccc5nc([C@@H]6CCCN6C(=O)OC(C)(C)C)[nH]c54)c3)cc2[nH]1` [Compound 4], the EC90 is reported as ≥ 1000 nM.
Molecule `CC(C)(C)OC(=O)N1CC(F)(F)C[C@H]1c1nc2ccc(-c3ccc4c(ccc5nc([C@@H]6CCCN6C(=O)OC(C)(C)C)[nH]c54)c3)cc2[nH]1` [Compound 9] has an EC90 of 1 to 999 nM.
`COC(=O)N[C@H](C(=O)N1CCC[C@H]1c1nc2ccc(-c3ccc4c(ccc5nc([C@@H]6CCCN6)[nH]c54)c3)cc2[nH]1)C(C)C` [Compound 17] showed an EC90 of 1 to 999 nM.
In the case of `COC(=O)N[C@H](C(=O)N1CCC[C@H]1c1nc2cc(F)c(-c3ccc4c(ccc5nc([C@@H]6CCCN6C(=O)[C@@H](NC(=O)OC)C(C)C)[nH]c54)c3)cc2[nH]1)C(C)C` [Compound 7], the EC90 is reported as < 1 nM.
For `COC(=O)N[C@H](C(=O)N1CCC[C@H]1c1nc2ccc(-c3ccc4c(ccc5nc([C@@H]6CCCN6C(=O)[C@@H](NC(=O)OC)C(C)C)[nH]c54)c3)cc2[nH]1)C(C)C` [Compound 3], the EC90 was < 1 nM.
`CC(C)[C@H](N)C(=O)N1CC(F)(F)C[C@H]1c1nc2ccc(-c3ccc4c(ccc5nc([C@@H]6CCCN6C(=O)[C@@H](N)C(C)C)[nH]c54)c3)cc2[nH]1` [Compound 14] gave an EC90 of 1 to 999 nM.
With `CC(=O)N1CCC[C@H]1c1nc2ccc(-c3ccc4c(ccc5nc([C@@H]6CCCN6)[nH]c54)c3)cc2[nH]1` [Compound 6] the EC90 was 1 to 999 nM.
